Data on four compounds can be found in patent US20100190797A1, “C[…] OF ZOPICLONE, PROCESSES FOR THEIR PREPARATION AND THEIR PHARMACEUTICAL COMPOSITIONS” (CIPLA LTD., priority 2007, published 2010).

The conditions of data set [1]: background statement; Form A gets converted into dihydrate Form B; cited from earlier work.
Data set [2] in a line: Stability of crystalline polymorphic forms of Zopiclone (conversion to hydrate form). The note with it: conversion to more stable hydrate form of Zopiclone.
Data set [3] can be described thus: Hygroscopicity on exposure to air. It counts as physicochemical. Conditions: does not capture moisture even on exposure to air.

With `CN1CCN(C(=O)OC2c3nccnc3C(=O)N2c2ccc(Cl)cn2)CC1` (centres unmarked) [Form B, Zopiclone], the “stability of the known crystalline form” value in data set [1] is “thermodynamically stable”. As to `CN1CCN(C(=O)OC2c3nccnc3C(=O)N2c2ccc(Cl)cn2)CC1` (centres unmarked) [Form C, Zopiclone], the “thermodynamic stability of the crystalline form” value in data set [2] is “thermodynamically unstable”.

As to `CN1CCN(C(=O)OC2c3nccnc3C(=O)N2c2ccc(Cl)cn2)CC1` (centres unmarked) [Zopiclone Form A, Zopiclone], the “stability of the known crystalline form” value in data set [1] is “unstable”. For `CN1CCN(C(=O)OC2c3nccnc3C(=O)N2c2ccc(Cl)cn2)CC1` (centres unmarked) [Zopiclone Form D, Zopiclone], in data set [3], the hygroscopicity result is on record as “non-hygroscopic”. Moreover, the “thermodynamic stability of the crystalline form” value in data set [2] is “stable”.
